Results on four molecules are retold here after patent publication US6291657A (priority 1993, dated 2001).

In general, IC50 refers to the concentration that gives 50% inhibition.

Data set [1] relates to glycolipid and phospholipid species in HL-60 cells. Briefly: 2D-TLC analysis of total HL-60 lipids labelled with [14C]-palmitic acid. It counts as cell-based, human. Particulars: 2D-TLC (FIG. 2). The protocol: 2D-TLC separation was made of total HL-60 lipids labelled with [^14 C]-palmitic acid. Cells were treated with either 0.5 mM NB-DNJ or NB-DGJ or untreated (UT). Lipids were assigned as follows (untreated cells, lefthand panel, FIG. 2A): 1, gangliosides; 2, lysophospatidylcholine; 3, ceramide phosphorylcholine; 4, ceramide phosphorylethanolamine; 5, phospatidylcholine; 6, phosphatidylinositol; 7, phosphatidylethanolamine; 8, phosphatidylglycerol; 9, diglycosylceramide; 10, monoglycosylceramide; 11, cholesterol/fatty acids/neutral lipids; N and N* are unknowns; and 0 is the sample origin. Following NB-DNJ and NB-DGJ treatment (middle and righthand panels, FIGS. 2B and 2C, respectively) species 1 (gangliosides);9 (diglycosylceramide); 10 (monoglycosylceramide) and N* (unknown) were absent. The radiolabelled lipids were visualized by autoradiography.
HL-60 cells were cultured by conventional procedure as previously described by Platt et al., Eur. J. Biochem. 208, 187-193 (1992). HL-60 cells at 5×10^4 cells/ml were cultured in the presence or absence of imino sugars for 24 hr. For labelling, the two dimensional thin layer chromatography (2D-TLC) conventional method of Butters and Hughes was followed [In Vitro 17, 831-838 (1981)]. Briefly, [^14 C]-palmitic acid (56.8 mCi/mmol, ICN/Flow) was added as a sonicated preparation in foetal calf serum (FCS, Techgen, London, U.K., 0.5 μCi/ml) and the cells cultured for a further 3 days maintaining the imino sugars in the medium. The cells were harvested, washed three times with phosphate buffered saline (PBS), extracted in 1 ml chloroform:methanol (2:1 v/v) and separated by 1 dimensional TLC, loading equal counts (1D-TLC, chloroform:methanol:water (65:25:4)). For two dimensional separations the one dimensional separation was performed as described above, the plate dried overnight under vacuum and separated in the second dimension using a solvent of tetrahydrofuran: dimethoxymethane:methanol:water (10:6:4:1). Plates were air dried and exposed to Hyperfilm-MP high performance autoradiography film (Amersham).

Another data set has as its system HL-60 cells. Briefly: Cytotoxicity in the dose range tested. In kind it is cell-based, human.
The next data set addresses α-glucosidase I and II. Put plainly: Inhibition of purified processing α-glucosidase I and II. It counts as biochemical. The conditions noted are these: mixture of purified α-glucosidases I and II. The protocol: Porcine liver α-glucosidase I and rat liver α-glucosidase II were purified to homogeneity and assayed by conventional procedure using a [^14 C]-glucose labelled Glc3 Man9 GlcNAc2 substrate as previously described by Karlsson et al., J. Biol. Chem. 268, 570-576 (1993).
Enzymes were assayed according to procedure described hereinbefore using
The data from FIG. 8 were […]

Data set [2] has as its system glucocerebrosidase in WEHI-3B cells. The conditions noted are these: WEHI-3B cells in the absence of CBE; cited from earlier work.
Data set [3] concerns N-linked oligosaccharide processing of gp120 in CHO cells (α-glucosidases I and II). The conditions noted are these: previously tested [Karlsson et al.]; cited from earlier work.
For another data set, the system named is α-glucosidase I. Particulars: cell culture systems, Karlsson et al.; cited from earlier work.
Data set [4] concerns oligosaccharide biosynthesis in HL-60 cells. Briefly: Glycopeptide analysis by Con A-SEPHAROSE chromatography, HL-60 cells. It counts as cell-based, human.
Data set [5] has as its system oligosaccharide biosynthesis in BW5147 cells. Briefly: Glycopeptide analysis by Con A-SEPHAROSE chromatography, BW5147 cells. In kind it is cell-based, murine.
For data set [6], the system named is N-linked oligosaccharide processing of gp120 in CHO cells (α-glucosidases I and II). Briefly: Endo H sensitivity of gp120 expressed in CHO cells (N-linked oligosaccharide processing). In kind it is cell-based, Chinese hamster. The conditions noted are these: 0.5 mM or 5 mM (FIG. 7). On the procedure: The arrows indicate the molecular weight of the untreated gp120 (120 kDa) and post endo H digestion (60 kDa). An additional band of low molecular weight (approximately 60 kDa) was present in some lanes and is a non-specific protein precipitated by the solid phase matrix.
The culture of CHO cells expressing soluble recombinant gp120 (from Dr. P. Stevens, MRC AIDS Directed Programme Reagent Project) and the radiolabelling of these cells was carried out by conventional procedure as described by Karlsson et al., J. Biol. Chem. 268, 570-576 (1993). Briefly, CHO cells were harvested mechanically, washed three times with phosphate buffered saline, 0.1M pH 7.2 (PBS) and resuspended in methionine- and cysteine-free RPMI-1640 medium (ICN-Flow Laboratories, High Wycombe, Bucks, U.K.) supplemented with 1% dialysed FCS. Cells (10^7 /ml) were preincubated in the presence or absence of NB-DNJ or NB-DGJ for 1 hr prior to the addition of 100 μCi/ml Tran^35 S-label (ICN-Flow) for 4 hr. The supernatants were collected and concentrated tenfold using a 30 kDa cut-off membrane (Amicon, Danvers, Mass., U.S.A.).
Immunoprecipitations were performed by conventional procedure as described by Karlsson supra. Supernatants were incubated with the mAb ABT 1001 monoclonal antibody (American Biotechnologies Inc., Cambridge, Mass., U.S.A.) at 0.5 μg/100 μl of supernatant for 30 min. at room temperature followed by sheep anti-mouse IgG1-coated magnetic beads (Dynal Ltd., Wirral, Merseyside, U.K., 1.2×10^7 beads per sample) for 1 hr. at 4° C. The beads were washed three times with 2% TRITON® X-100 in PBS and three times with PBS. Gp120 was eluted in […] reducing SDS-PAGE sample buffer with heating (95° C., 5 min.). Each sample was divided into two equal aliquots and 25 μl of dH2 O added to give a final volume of 50 μl. To one half of each sample 2 μl of endoglycosidase H (endo H, 1 unit/ml, Boehringer Mannheim Ltd., Lewes, Sussex, U.K.) was added and the other half left untreated. […]

Data set [7] concerns cholera toxin binding sites on H9 cells. It counts as cell-based, human. Particulars: h9 cells, 4320 min.
The next data set has as its system WEHI-3B cell lysosomes. Put plainly: Transmission electron microscopy of lysosomes of CBE treated WEHI-3B cells. Particulars: transmission electron microscopy (FIG. 6). It counts as cell-based, murine.
The target of data set [8] is UDP-glucose:N-acylsphingosine glucosyltransferase. Put plainly: Inhibition of UDP-glucose:N-acylsphingosine glucosyltransferase. It counts as biochemical, rat brain, mouse macrophage (WEHI-3B). The conditions noted are these: rat brain or mouse macrophage homogenates; read-out: IC50.
Data set [9] deals with glycolipid biosynthesis in HL-60 cells. Briefly: Inhibition of glycolipid biosynthesis in HL-60 cells, [14C]-palmitic acid labelling, 1D-TLC.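 As to all read-outs here: cells cultured 24 h with or without test compound, total cellular lipids resolved by one-dimensional TLC and detected by autoradiography, inhibition shown as missing Glc-Cer and gangliosides versus untreated cells.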 Particulars: for effect of N-alkyl chain length on inhibition of glycolipid biosynthesis (loss of detectable Glc-Cer): HL-60, 0.5 mM, 1D-TLC (FIG. 4). It counts as cell-based, human.
The test system of data set [10] is Glc-Cer accumulation in WEHI-3B murine macrophage cells. Put plainly: In vitro Gaucher's disease model: CBE induced glycolipid storage in WEHI-3B cells, 1D-TLC. In kind it is cell-based. The conditions noted are these: CBE. The protocol: In this model, the murine macrophage cell line WEHI-3B was cultured in the presence of an irreversible glucocerebrosidase inhibitor, conduritol β epoxide (CBE), to mimic the inherited disorder found in Gaucher's disease. WEHI-3B cells are well-known, widely distributed and readily available murine macrophage cells. They are described in Cancer Res. 37, 546-550 (1977), and are readily available from the American Type Culture Collection, Rockville, Md, under accession number ATCC TIB 68. The compounds of the invention prevent lysosomal glycolipid storage which is useful for the management of Gaucher's disease and other glycolipid storage disorders as illustrated hereinafter in Table 3. Gaucher's disease is an autosomal recessive disorder characterized by an impaired ability to degrade glucocerebroside (glucosyl ceramide, Glc-Cer) due to mutations in the gene encoding β-glucocerebrosidase (β-D-glucosyl-N-acylsphingosine glucohydrolase, EC 3.2.1.45). This defect results in the lysosomal accumulation of Glc-Cer in cells of the macrophage-monocyte system [Barranger and Ginns, in The Metabolic Basis of Inherited Diseases, ed. Scriver et al., pp. 1677-1698, McGraw-Hill, New York, (1989); Beutler, Science 256, 794-799 (1992)]. By slowing the rate of glycolipid synthesis, the impaired catabolism of Glc-Cer can be offset, thereby leading to the maintenance of a balanced level of Glc-Cer.
FIGS. 5 and 6 show the analysis of NB-DNJ and NB-DGJ in an in vitro Gaucher's disease model.
The in vitro Gaucher's disease model was prepared as follows: WEHI-3B cells (American Type Culture Collection, Rockville, Md., U.S.A.) were maintained in logarithmic phase growth for 14 days in RPMI-1640 medium, 10% FCS, in the presence or absence of 50 μM conduritol β epoxide (CBE, Toronto Research Chemicals, Downsview, Canada) with or without NB-DNJ or NB-DGJ. Cells were passaged every 3 days and compound concentrations maintained throughout. Equal cell numbers (5×10^6) were harvested, extracted in 1 ml chloroform: methanol (2:1 v/v) overnight at 4° C., the extracts centrifuged, the chloroform:methanol extract retained and the pellet re-extracted as above for 2 hr. at room temperature. Pooled extracts were dried under nitrogen, re-dissolved in 10 μl chloroform:methanol (2:1 v/v) and separated by 1D-TLC in chloroform:methanol:water […]. Plates were air dried and visualized using α-naphthol (1% w/v in methanol) followed by 50% (v/v) sulphuric acid.

A further data set relates to β-glucosidases. The conditions noted are these: Legler & Pohl, 1986; cited from earlier work.

Entries after “also recorded” stand apart in the source; their conditions may differ.

With `CCCCN1C[C@H](O)[C@@H](O)[C@H](O)[C@H]1CO` [NB-DNJ, N-Butyldeoxynojirimycin], the “gangliosides, unknown lipid (N*), mono and dihexaside species following treatment” value in data set [1] (HL-60, 0.5 mM) is recorded as “absent”. Besides, the “depletion of glycolipid species” value in data set [1] (HL-60, 500 μM) was “total depletion of glycolipid species”. The cytotoxicity result with HL-60 cells is on record as “non-cytotoxic”. Besides, the IC50 amounted to 360 nM at α-glucosidase I and II; 2950 nM in [8]. Besides, the Glc-Cer accumulation entry in data set [2] is reported as “accumulated Glc-Cer”. Further, the “endo H sensitivity of high mannose oligosaccharides on gp120” value in [3] is “fully sensitive to endo H”. For the same molecule, in the data set on α-glucosidase I, the “concentration for α-glucosidase I inhibition” value is recorded as 0.5 mM. The “Total 3H-mannose recovered” value in data set [4] (HL-60) worked out at 913095 cpm; in data set [5], 686026 cpm. Besides, the Bi-antennary in data set [4] (HL-60, percentage of radiolabelled glycopeptides eluted with 10 mM methylglucoside) is 20.0%; in [5] (percentage of radiolabelled glycopeptides eluted with 10 mM methylglucoside), 4.9%. For the same molecule, the “Oligo-mannose & hybrid” value in [4] (HL-60, percentage of radiolabelled glycopeptides eluted with 500 mM methylmannoside) was 60.5%; in [5] (percentage of radiolabelled glycopeptides eluted with 500 mM methylmannoside) it was 68.3%. The “Tetra- & Tri-antennary” value in [4] (HL-60, percentage of radiolabelled glycopeptides non-bound) is 19.5%; in data set [5] (percentage of radiolabelled glycopeptides non-bound), 26.8%. The “glycopeptide profile by Con A-SEPHAROSE chromatography” value in data set [4] (HL-60 and BW5147) was “changes the affinity of glycopeptides”. In addition, in data set [4] (HL-60 and BW5147), the “proportion of unbound glycans (tetra- and tri-antennary species)” value is “decreases”. In addition, the “proportion of high mannose/hybrid glycans tightly bound to Con A-SEPHAROSE” value in [4] (HL-60 and BW5147, eluted with 500 mM methylmannoside) is “increase”. Besides, in [6], the “endo H sensitivity of gp120 N-linked glycans” value is listed as “fully endo H sensitive”. In addition, in data set [7], the “reduction in cholera toxin binding” value was “approximately 90%”. For the same molecule, in the data set with WEHI-3B cell lysosomes, the “glycolipid accumulation in lysosomes” value was “prevented the glycolipid accumulation”. Besides, in [9] (HL-60, 500 μM, 1D-TLC), the “lipid species whose biosynthesis was inhibited” value is “inhibited the biosynthesis of Glc-Cer, gangliosides and an unknown lipid species”. Moreover, the “inhibition of glycolipid biosynthesis” value in [9] (HL-60, 500 μM, 1D-TLC (FIG. 1)) is given as “specifically inhibited glycolipid biosynthesis”. In data set [9], the “effect of N-alkyl chain length on inhibition of glycolipid biosynthesis (loss of detectable Glc-Cer)” value was “completely inhibited glycolipid biosynthesis”. For the same molecule, the minimal effective concentration in data set [9] (Homo sapiens, HL-60, 1D-TLC (FIG. 3), partial inhibition, read-out: concentrations as low as which partial inhibition occurred) lay in the range of 0.5 to 5 µM.

For `CCCCCCN1C[C@H](O)[C@@H](O)[C@@H](O)[C@H]1CO` [N-hexyl DGJ, N-hexyl deoxygalactonojirimycin], the “prevention of glycolipid storage in in vitro Gaucher's disease model (in words)” value in data set [10] is “offset glucoceramide accumulation”. The “effect of N-alkyl chain length on inhibition of glycolipid biosynthesis (loss of detectable Glc-Cer)” value in data set [9] is reported as “completely prevented glycolipid biosynthesis; also recorded: completely inhibited glycolipid biosynthesis”.

Take `CCCCCCCN1C[C@H](O)[C@@H](O)[C@@H](O)[C@H]1CO` [N-heptyldeoxygalactonojirimycin]: the “affinity towards certain β-glucosidases” value in the data set on β-glucosidases was “modest increase in the affinity”.

Take `O[C@H]1[C@H](O)[C@@H](O)[C@@H]2O[C@@H]2[C@@H]1O` [CBE, conduritol β epoxide]: the “glycolipid accumulation in lysosomes” value in the data set with WEHI-3B cell lysosomes is “glycolipid accumulation observed in the lysosomes”.
